# Experiment: physchem
row,SMILES,pKa
1,NS(=O)(=O)c1cc(C(=O)Cn2cnc3ccccc32)ccc1Cl,8.8
2,Cc1nc2ccccc2n1CC(=O)c1ccc(Cl)c(S(N)(=O)=O)c1,8.8
3,CCc1nc2ccccc2n1CC(=O)c1ccc(Cl)c(S(N)(=O)=O)c1,8.8
4,NS(=O)(=O)c1cc(C(=O)CN2CCCc3ccccc32)ccc1Cl,8.8
5,NS(=O)(=O)c1cc(C(=O)Cn2ccnc2)ccc1Cl,8.8
6,NS(=O)(=O)c1cc(C(=O)Cn2ccnc2-c2ccccc2)ccc1Cl,8.8
7,Cc1cc2ncn(CC(=O)c3ccc(Cl)c(S(N)(=O)=O)c3)c2cc1C,8.8
8,NS(=O)(=O)c1cc(C(=O)Nn2cnc3ccccc32)c(SC2CCCCC2)cc1Cl,8.8
9,NS(=O)(=O)c1cc(C(=O)Cn2cnc3ccccc32)c(Cl)cc1Cl,8.3
10,Cc1cc2ncn(CC(=O)c3cc(S(N)(=O)=O)c(Cl)cc3Sc3ccccc3)c2cc1C,8.8
11,NS(=O)(=O)c1cc(C(=O)Nn2cnc3ccccc32)c(Cl)cc1Cl,8.3
12,CCc1nccn1CC(=O)c1ccc(Cl)c(S(N)(=O)=O)c1,8.8
13,Cc1cc2ncn(CC(=O)c3cc(S(N)(=O)=O)c(Cl)cc3Cl)c2cc1C,8.3
14,NS(=O)(=O)c1cc(C(=O)Cn2ccnc2)c(Cl)cc1Cl,8.3
15,NS(=O)(=O)c1cc(C(=O)Cn2cnc3ccccc32)c(SCCc2ccccc2)cc1Cl,8.8
16,NS(=O)(=O)c1cc(C(=O)CN2CCc3ccccc32)ccc1Cl,8.8
17,NS(=O)(=O)c1cc(C(=O)Cn2cnc(-c3ccccc3)c2-c2ccccc2)ccc1Cl,8.8
18,NS(=O)(=O)c1cc(C(=O)Nn2cnc3ccccc32)c(Sc2ccccc2)cc1Cl,8.8
19,CC1Cc2ccccc2N1NC(=O)c1ccc(Cl)c(S(N)(=O)=O)c1 (centres undefined) [INDAPAMIDE],8.8

# From ChEMBL document CHEMBL4184200, “Benzimidazole design, synthesis, and docking to build selective carbonic anhydrase VA inhibitors” (Bioorg Med Chem, 2018)
